According to patent US20130096119A1, “Isoquinolin-3-Ylurea Derivatives” (priority 2010, published 2013):
In brackets after ≈: the same amount, converted by molar mass.

Tested on: S. pneumoniae ATCC 49619
Assay: Minimal inhibitory concentration (MIC) by microdilution method (CLSI M7-A7)
Type: cell-based, Streptococcus pneumoniae
Conditions: Streptococcus pneumoniae, ATCC49619, cation-adjusted Mueller-Hinton Broth supplemented with 3% (v/v) lysed horse blood
Outline: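 Broth microdilution per CLSI M7-A7 in cation-adjusted Mueller-Hinton broth, supplemented with 3% (v/v) lysed horse blood for S. pneumoniae; MIC reported in mg/l.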

Compound	MIC [µg/mL]
CCNC(=O)Nc1cc2cc(NCc3ccc(OCC(N)=O)cc3)cc(C)c2cn1 [Example 186, 2-(4-{[3-(3-ethyl-ureido)-8-methyl-isoquinolin-6-ylamino]-methyl}-phenoxy)-acetamide]	8 (≈ 19.6 µM)
CCNC(=O)Nc1cc2cc(NCC3CC3)cc(C)c2cn1.Cl [Example 133, 1-{6-[(cyclopropylmethyl)-amino]-8-methyl-isoquinolin-3-yl}-3-ethyl-urea hydrochloride]	16
CCNC(=O)Nc1cc2cc(NC(=O)c3ccncc3)cc(C)c2cn1 [Example 116, N-[3-(3-ethyl-ureido)-8-methyl-isoquinolin-6-yl]-isonicotinamide]	0.125 (≈ 0.358 µM)
CCNC(=O)Nc1cc2cc(-c3ccc(F)nc3)cc(C)c2cn1 [Example 99, 1-ethyl-3-[6-(6-fluoro-pyridin-3-yl)-8-methyl-isoquinolin-3-yl]-urea]	2 (≈ 6.17 µM)
CCNC(=O)Nc1cc2cc(-c3ccoc3)cc(C)c2cn1 [Example 14, 1-ethyl-3-(6-furan-3-yl-8-methyl-isoquinolin-3-yl)-urea]	4 (≈ 13.5 µM)
CCNC(=O)Nc1cc2cc(-c3cccc(F)c3)cc(C)c2cn1 [Example 88, 1-ethyl-3-[6-(3-fluoro-phenyl)-8-methyl-isoquinolin-3-yl]-urea]	2 (≈ 6.18 µM)
CCNC(=O)Nc1cc2c(-c3ccc(S(N)(=O)=O)cc3)ccc(C)c2cn1 [Example 35, 4-[3-(3-ethyl-ureido)-8-methyl-isoquinolin-5-yl]-benzenesulfonamide]	0.5 (≈ 1.3 µM)
CCNC(=O)Nc1cc2cccc(Nc3cccc(CC(=O)NCc4ccccc4)c3)c2cn1.Cl [Example 210, N-benzyl-2-{3-[3-(3-ethyl-ureido)-isoquinolin-8-ylamino]phenyl}-acetamide hydrochloride]	8
CCNC(=O)Nc1cc2cc(NCCOCc3ccccc3)cc(C)c2cn1.Cl [Example 132, 1-[6-(2-benzyloxy-ethylamino)-8-methyl-isoquinolin-3-yl]-3-ethyl-urea hydrochloride]	8
CCNC(=O)Nc1cc2cc(NCc3cccc(-n4cncn4)c3)cc(C)c2cn1 [Example 187, 1-ethyl-3-[8-methyl-6-(3-[1,2,4]-triazol-1-yl-benzylamino)-isoquinolin-3-yl]-urea]	8 (≈ 19.9 µM)
CCNC(=O)Nc1cc2cc(-c3ccccc3C)cc(C)c2cn1 [Example 105, 1-ethyl-3-(8-methyl-6-o-tolyl-isoquinolin-3-yl)-urea]	8 (≈ 25 µM)
CCNC(=O)Nc1cc2c(-c3cc(C)nc(C)c3)ccc(Nc3cccnc3)c2cn1 [Example 231, 1-[5-(2,6-dimethyl-pyridin-4-yl)-8-(pyridin-3-ylamino)-isoquinolin-3-yl]-3-ethyl-urea]	0.5 (≈ 1.21 µM)
CCNC(=O)Nc1cc2cc(NC(=O)c3cccc(N(C)C)c3)cc(C)c2cn1 [Example 118, 3-dimethylamino-N-[3-(3-ethyl-ureido)-8-methyl-isoquinolin-6-yl]-benzamide]	0.06 (≈ 0.153 µM)
CCNC(=O)Nc1cc2c(-c3ccc(CO)cc3)ccc(Nc3cccc(C(=O)NC)c3)c2cn1 [Example 250, 3-[3-(3-ethyl-ureido)-5-(4-hydroxymethyl-phenyl)-isoquinolin-8-ylamino]-N-methyl-benzamide]	1 (≈ 2.13 µM)
CCNC(=O)Nc1cc2c(F)c(-c3ccc(S(N)(=O)=O)cc3)cc(Cl)c2cn1 [Example 111, 4-[8-chloro-3-(3-ethyl-ureido)-5-fluoro-isoquinolin-6-yl]-benzenesulfonamide]	1 (≈ 2.36 µM)
CCNC(=O)Nc1cc2c(-c3cc(C)nc(C)c3)ccc(C)c2cn1 [Example 44, 1-[5-(2,6-dimethyl-pyridin-4-yl)-8-methyl-isoquinolin-3-yl]-3-ethyl-urea]	4 (≈ 12 µM)
CCNC(=O)Nc1cc2c(-c3ccnc(C)c3)ccc(C)c2cn1 [Example 40, 1-ethyl-3-[8-methyl-5-(2-methyl-pyridin-4-yl)-isoquinolin-3-yl]-urea]	2 (≈ 6.24 µM)
CCNC(=O)Nc1cc2cc(-c3cccc(C(C)=O)c3)cc(C)c2cn1 [Example 29, 1-[6-(3-acetyl-phenyl)-8-methyl-isoquinolin-3-yl]-3-ethyl-urea]	0.5 (≈ 1.44 µM)
CCNC(=O)Nc1cc2c(-c3ccnc(F)c3)ccc(C)c2cn1 [Example 41, 1-ethyl-3-[5-(2-fluoro-pyridin-4-yl)-8-methyl-isoquinolin-3-yl]-urea]	2 (≈ 6.17 µM)
CCNC(=O)Nc1cc2cc(-c3cnc4ccccc4c3)cc(C)c2cn1 [Example 36, 1-ethyl-3-(8-methyl-6-quinolin-3-yl-isoquinolin-3-yl)-urea]	0.125 (≈ 0.351 µM)
C=Cc1cc(C)c2cnc(NC(=O)NCC)cc2c1 [Example 216, 1-ethyl-3-(8-methyl-6-vinyl-isoquinolin-3-yl)-urea]	8 (≈ 31.3 µM)
CCNC(=O)Nc1cc2c(-c3cn(C)cn3)ccc(C)c2cn1.Cl [Example 283, 1-ethyl-3-[8-methyl-5-(1-methyl-1H-imidazol-4-yl)-isoquinolin-3-yl]-urea hydrochloride]	8

Compound	MIC [µg/mL]
CCNC(=O)Nc1cc2c(-c3ccnc(N)c3)ccc(Nc3cccnc3)c2cn1 [Example 233, 1-[5-(2-amino-pyridin-4-yl)-8-(pyridin-3-ylamino)-isoquinolin-3-yl]-3-ethyl-urea]	0.5 (≈ 1.25 µM)
CCNC(=O)Nc1cc2cc(-c3ccc4nccn4c3)cc(C)c2cn1 [Example 25, 1-ethyl-3-(6-imidazo[1,2-a]pyridin-6-yl-8-methyl-isoquinolin-3-yl)-urea]	0.5 (≈ 1.45 µM)
CCNC(=O)Nc1cc2cccc(Nc3ccc(C)c(C(=O)OC)c3)c2cn1 [Example 264, 5-[3-(3-ethyl-ureido)-isoquinolin-8-ylamino]-2-methyl-benzoic acid methyl ester]	8 (≈ 21.1 µM)
CCNC(=O)Nc1cc2c(F)c(NCc3ccccc3)cc(Nc3cccnc3)c2cn1 [Example 240, 1-[6-benzylamino-5-fluoro-8-(pyridin-3-ylamino)-isoquinolin-3-yl]-3-ethyl-urea]	2 (≈ 4.65 µM)
CCNC(=O)Nc1cc2cccc(Nc3ccc(C(=O)OC)cc3)c2cn1 [Example 179, 4-[3-(3-ethyl-ureido)-isoquinolin-8-ylamino]-benzoic acid methyl ester]	4 (≈ 11 µM)
CCNC(=O)Nc1cc2cc(-c3ccsc3)cc(C)c2cn1 [Example 93, 1-ethyl-3-(8-methyl-6-thiophen-3-yl-isoquinolin-3-yl)-urea]	2 (≈ 6.42 µM)
CCNC(=O)Nc1cc2c(-c3cscn3)ccc(Nc3cccc(OC)n3)c2cn1 [Example 290, 1-ethyl-3-[8-(6-methoxy-pyridin-2-ylamino)-5-thiazol-4-yl-isoquinolin-3-yl]-urea]	0.5 (≈ 1.19 µM)
CCNC(=O)Nc1cc2cc(NCc3ccc4c(c3)OCCN4C)cc(C)c2cn1.Cl [Example 130, 1-ethyl-3-{8-methyl-6-[(4-methyl-3,4-dihydro-2H-benzo[1,4]oxazin-7-ylmethyl)-amino]isoquinolin-3-yl}-urea hydrochloride]	8
CCNC(=O)Nc1cc2cc(-c3cncnc3C(C)C)cc(C)c2cn1 [Example 95, 1-ethyl-3-[6-(4-isopropyl-pyrimidin-5-yl)-8-methyl-isoquinolin-3-yl]-urea]	16 (≈ 45.8 µM)
CCNC(=O)Nc1cc2c(F)c(-c3cnc4ccccc4c3)cc(-c3cnc4ccccc4c3)c2cn1 [Example 112, 1-ethyl-3-(5-fluoro-6,8-di-quinolin-3-yl-isoquinolin-3-yl)-urea]	0.5 (≈ 1.03 µM)
CCNC(=O)Nc1cc2cc(NC(=O)c3cccnc3)cc(C)c2cn1 [Example 119, N-[3-(3-ethyl-ureido)-8-methyl-isoquinolin-6-yl]nicotinamide]	0.25 (≈ 0.716 µM)
CCNC(=O)Nc1cc2cc(-c3cncc(C(=O)OC)c3)cc(C)c2cn1 [Example 87, 5-[3-(3-ethyl-ureido)-8-methyl-isoquinolin-6-yl]-nicotinic acid methyl ester]	8 (≈ 22 µM)
CCNC(=O)Nc1cc2cccc(Nc3cccc(C(=O)NC)c3)c2cn1.Cl [Example 200, 3-[3-(3-ethyl-ureido)-isoquinolin-8-ylamino]-N-methyl-benzamide hydrochloride]	1
CCNC(=O)Nc1cc2c(F)c(-c3cncc(C)c3)cc(Nc3cccnc3)c2cn1 [Example 235, 1-ethyl-3-[5-fluoro-6-(5-methyl-pyridin-3-yl)-8-(pyridin-3-ylamino)-isoquinolin-3-yl]urea]	0.25 (≈ 0.6 µM)
CCNC(=O)Nc1cc2cccc(Nc3cccc(C(=O)N(C)C)c3)c2cn1.Cl [Example 199, 3-[3-(3-ethyl-ureido)-isoquinolin-8-ylamino]-N,N-dimethyl-benzamide hydrochloride]	1
CCNC(=O)Nc1cc2c(-c3c[nH]cn3)ccc(C)c2cn1.Cl [Example 280, 1-ethyl-3-[5-(1H-imidazol-4-yl)-8-methyl-isoquinolin-3-yl]urea hydrochloride]	1
CCNC(=O)Nc1cc2cc(-c3ccccc3C(=O)N(C)C)cc(C)c2cn1 [Example 23, 2-[3-(3-ethyl-ureido)-8-methyl-isoquinolin-6-yl]-N,N-dimethyl-benzamide]	8 (≈ 21.3 µM)
CCNC(=O)Nc1cc2c(-c3cscc3C)ccc(C)c2cn1 [Example 64, 1-ethyl-3-[8-methyl-5-(4-methyl-thiophen-3-yl)-isoquinolin-3-yl]-urea]	1 (≈ 3.07 µM)
CCNC(=O)Nc1cc2c(-c3ccncc3)ccc(Nc3cccc(C)n3)c2cn1 [Example 219, 1-ethyl-3-[8-(6-methyl-pyridin-2-ylamino)-5-pyridin-4-yl-isoquinolin-3-yl]-urea]	0.25 (≈ 0.627 µM)
CCNC(=O)Nc1cc2cc(-c3cccc(NC(C)=O)c3)cc(Nc3cccnc3)c2cn1 [Example 236, N-{3-[3-(3-ethyl-ureido)-8-(pyridin-3-ylamino)-isoquinolin-6-yl]-phenyl}-acetamide]	0.5 (≈ 1.14 µM)
CCNC(=O)Nc1cc2cccc(Nc3ccn4ccnc4c3)c2cn1 [Example 150, 1-ethyl-3-[8-(imidazo[1,2-a]pyridin-7-ylamino)-isoquinolin-3-yl]-urea]	4 (≈ 11.5 µM)
CCNC(=O)Nc1cc2cc(-c3cccc(C(=O)OCC)c3)cc(C)c2cn1 [Example 84, 3-[3-(3-ethyl-ureido)-8-methyl-isoquinolin-6-yl]-benzoic acid ethyl ester]	0.5 (≈ 1.32 µM)
